# Where two headings read alike, the source gives them in different places.
# System: A431 cells
# Assay: A431 cell proliferation assay (MTT), alone and in combination with Tarceva
# Format: cell-based
# Conditions: for IC50: further studies, Example 9, Table 7A, read-out: A431 Cell Proliferation (IC50 Value); for A431 Cell Proliferation CI Value: combination with Tarceva, CI <0.8 indicates synergy, Example 9, Table 7B
# Protocol: This example describes an assay that measures the ability of compounds to inhibit the proliferation of cultured cells. This assay can also be used to assess whether combining two or more compounds produces additive, synergistic, or antagonistic effects on cell growth.
# On day 1, the cells were seeded at 10^3 cells per well in 100 μl of complete media under standard conditions.
# On day 2, the cells were washed and 100 μl serum free media was added. The cells were then incubated for at least 2 hours before the addition of compound(s). 20 μl of compound(s) was added to the respective wells and incubated at 37° C., 5% CO2 for 72 hrs.
# On day 5, 50 μl of the MTT dye solution was added to each well. The plates were incubated at 37° C., 5% CO2 for 1 hr. The media was then aspirated and the cells were resuspended in […] of DMSO. The plates were allowed to incubate for 5 min at room temperature with gentle shaking.
# The absorbance in each well was determined at 560 nm using a Polarstar plate reader.
# The A431 cell line over-expresses the EGF receptor, and was utilized to assess the ability of AD4 compounds to inhibit EGF-mediated cell proliferation.
# [1] = Homo sapiens, A-431, A431 cells
SMILES,IC50 [1] [nM],A431 Cell Proliferation CI Value,IC50 (A431 cells) [nM]
Oc1c(C(Nc2cc(Cl)c(Cl)cn2)c2ccc(Cl)c(Cl)c2)ccc2cccnc12 (stereo not shown) [AD4-13177],2000,0.9,
Cc1cc(Cl)cnc1NC(c1ccc2cccnc2c1O)c1c(F)c(F)cc(F)c1F (stereo not shown) [AD4-13059],1000,0.71,
Cc1c(Cl)cnc(NC(c2ccc(Cl)cc2Cl)c2ccc3cccnc3c2O)c1F (stereo not shown) [AD4-13199],2000,1.1,
Oc1c(C(Nc2ccc(C(F)(F)F)cn2)c2ccc(C(F)(F)F)c(F)c2)ccc2cccnc12 (stereo not shown) [AD4-13034],1900,0.70,
COc1ccc(C(Nc2ncc(Cl)cc2C)c2ccc3cccnc3c2O)cc1OC (stereo not shown) [AD4-13193],,0.92,
Cc1cccc(NC(c2cc(Cl)cc(Cl)c2)c2ccc3ccc(C)nc3c2O)n1 (stereo not shown) [AD4-13075],1400,0.83,
Oc1c(C(Nc2ccccn2)c2c(F)c(F)c(OCC(F)(F)F)c(F)c2F)ccc2cccnc12 (stereo not shown) [AD4-13093],1800,0.80,
Oc1c(C(Nc2ccc(Cl)cn2)c2ccc(Cl)c(C(F)(F)F)c2)ccc2cccnc12 (stereo not shown) [AD4-13067],,0.63,
Oc1c(C(Nc2ccc(F)cn2)c2ccc(Cl)c(Cl)c2)ccc2cccnc12 (stereo not shown) [AD4-13113],,0.59,
Oc1c(C(Nc2ccc(Cl)cn2)c2cc(Cl)cc(Cl)c2Cl)ccc2cccnc12 (stereo not shown) [AD4-13111],740,0.95,
Oc1c(C(Nc2ccc(Cl)cn2)c2ccc(F)cc2Cl)ccc2cccnc12 (stereo not shown) [AD4-13088],1500,0.76,
Oc1c(C(Nc2ccc(C(F)(F)F)nc2)c2ccc(Cl)cc2Cl)ccc2cccnc12 (stereo not shown) [AD4-13066],5400,0.60,
Cc1cccc(NC(c2ccc3ccc(C)nc3c2O)c2c(Cl)cccc2Cl)n1 (stereo not shown) [AD4-13089],,0.67,
Cc1ccnc(NC(c2cccc(Cl)c2Cl)c2ccc3cccnc3c2O)c1 (stereo not shown) [AD4-12906],,0.66,
Cc1ccnc(NC(c2ccc(Cl)c(Cl)c2)c2ccc3cccnc3c2O)c1 (stereo not shown) [AD4-12917],,0.54,
Oc1c(C(Nc2ccc(Cl)cn2)c2cccc(Cl)c2Cl)ccc2cccnc12 (stereo not shown) [AD4-13086],1500,0.80,
COc1ccc(C(Nc2cc(C)c(Cl)cn2)c2ccc3cccnc3c2O)c(OC)c1OC (stereo not shown) [AD4-13196],,0.69,
Oc1c(C(Nc2ccc(F)cn2)c2cccc(Cl)c2Cl)ccc2cccnc12 (stereo not shown) [AD4-13103],1400,0.79,
Cc1ccc2ccc(C(Nc3cccnc3)c3c(F)c(F)c(OCC(F)(F)F)c(F)c3F)c(O)c2n1 (stereo not shown) [AD4-13101],,0.66,
Oc1c(C(Nc2ccc(C(F)(F)F)nc2)c2ccc(C(F)(F)F)c(F)c2)ccc2cccnc12 (stereo not shown) [AD4-13051],1600,0.72,
Oc1c(C(Nc2ccc(F)cn2)c2ccc(C(F)(F)F)c(F)c2)ccc2cccnc12 (stereo not shown) [AD4-13061],2200,0.79,

SMILES,IC50 [1] [nM],A431 Cell Proliferation CI Value,IC50 (A431 cells) [nM]
Oc1c(C(Nc2ccc(C(F)(F)F)cn2)c2ccc(C(F)(F)F)cc2)ccc2cccnc12 (stereo not shown) [AD4-13028],1800,0.76,
Oc1c(C(Nc2ccc(C(F)(F)F)nc2)c2ccc(C(F)(F)F)cc2)ccc2cccnc12 (stereo not shown) [AD4-13063],4400,0.77,
Cc1cc(Cl)cnc1NC(c1ccc(F)cc1F)c1ccc2cccnc2c1O (stereo not shown) [AD4-13068],5800,0.68,
Cc1cc(NC(c2ccc(C(F)(F)F)c(F)c2)c2ccc3cccnc3c2O)ncc1Cl (stereo not shown) [AD4-13106],650,0.75,
Oc1c(C(Nc2ccc(F)cn2)c2ccccc2Cl)ccc2cccnc12 (stereo not shown) [AD4-13104],2800,0.67,
Oc1c(C(Nc2ccc(Cl)cn2)c2c(F)cccc2Cl)ccc2cccnc12 (stereo not shown) [AD4-13091],1600,0.89,
COc1ccc(C(Nc2cc(Cl)c(Cl)cn2)c2ccc3cccnc3c2O)c(OC)c1OC (stereo not shown) [AD4-13197],,0.63,
Oc1c(C(Nc2ccccn2)c2ccc(Cl)c(C(F)(F)F)c2)ccc2cccnc12 (stereo not shown) [AD4-13057],1100,0.83,
Cc1cccc(NC(c2ccc(Cl)cc2Cl)c2ccc3ccc(C)nc3c2O)n1 (stereo not shown) [AD4-13082],1900,0.90,
Oc1c(C(Nc2cc(Cl)ccn2)c2cc(C(F)(F)F)ccc2Cl)ccc2cccnc12 (stereo not shown) [AD4-13060],1500,0.76,
Oc1c(C(Nc2ccc(F)cn2)c2cc(Cl)ccc2Cl)ccc2cccnc12 (stereo not shown) [AD4-13102],1400,0.75,
Oc1c(C(Nc2ccc(C(F)(F)F)nc2)c2cc(C(F)(F)F)ccc2Cl)ccc2cccnc12 (stereo not shown) [AD4-13062],,0.57,
Cc1cccc(NC(c2ccc(OC(F)(F)F)cc2)c2ccc3cccnc3c2O)n1 (stereo not shown) [AD4-12902],,0.7,
Cc1cccc(NC(c2cccc(Cl)c2Cl)c2ccc3cccnc3c2O)n1 (stereo not shown) [AD4-12905],,0.67,
Oc1c(C(Nc2ccc(F)cn2)c2c(F)cccc2Cl)ccc2cccnc12 (stereo not shown) [AD4-13112],2100,0.73,
Cc1ccnc(NC(c2ccc(Cl)cc2Cl)c2ccc3cccnc3c2O)c1 (stereo not shown) [AD4-12912],1200,0.70,
Cc1cc(NC(c2ccc(Cl)c(C(F)(F)F)c2)c2ccc3cccnc3c2O)ncc1Cl (stereo not shown) [AD4-13108],1600,0.84,
Cc1cc(NC(c2cc(Cl)ccc2Cl)c2ccc3cccnc3c2O)ncc1F (stereo not shown) [AD4-13118],,0.60,
Cc1ccnc(NC(c2cc(Cl)cc(Cl)c2)c2cc(Cl)c3cccnc3c2O)c1 (stereo not shown) [AD4-13079],1800,0.91,
Oc1c(C(Nc2ccc(F)cn2)c2cc(Cl)cc(Cl)c2Cl)ccc2cccnc12 (stereo not shown) [AD4-13132],1900,0.82,
Cc1cc(NC(c2ccc(C(F)(F)F)cc2C(F)(F)F)c2ccc3cccnc3c2O)ncc1Cl (stereo not shown) [AD4-13124],1600,0.76,

SMILES,IC50 [1] [nM],A431 Cell Proliferation CI Value,IC50 (A431 cells) [nM]
Oc1c(C(Nc2ccc(Cl)cn2)c2ccc(Cl)c(Cl)c2)ccc2cccnc12 (stereo not shown) [AD4-13054],,0.61,
Cc1nc(NC(c2ccc(Cl)c(Cl)c2)c2ccc3cccnc3c2O)c(Cl)cc1Cl (stereo not shown) [AD4-13202],,0.87,
Cc1cc(NC(c2ccc(C(F)(F)F)cc2)c2ccc3cccnc3c2O)ncc1Cl (stereo not shown) [AD4-13121],1900,0.75,
Cc1cc(NC(c2ccc3cccnc3c2O)c2c(F)cccc2Cl)ncc1F (stereo not shown) [AD4-13117],1300,0.72,
Oc1c(C(Nc2ccc(C(F)(F)F)nc2)c2ccc(C(F)(F)F)cc2F)ccc2cccnc12 (stereo not shown) [AD4-13065],4600,0.61,
Oc1c(C(Nc2ccccn2)c2ccc(Cl)cc2Cl)ccc2cccnc12 (stereo not shown) [AD4-10484],,0.97,
Oc1c(C(Nc2ccc(F)cn2)c2ccc(Cl)c(C(F)(F)F)c2)ccc2cccnc12 (stereo not shown) [AD4-13071],3500,0.70,
Oc1c(C(Nc2ccc(C(F)(F)F)nc2)c2ccc(Cl)c(Cl)c2)ccc2cccnc12 (stereo not shown) [AD4-13064],5100,0.64,
Cc1cc(Cl)cnc1NC(c1ccc(C(F)(F)F)c(F)c1)c1ccc2cccnc2c1O (stereo not shown) [AD4-13043],2100,0.81,
Oc1c(C(Nc2cc(Cl)ccn2)c2ccc(Cl)c(Cl)c2)ccc2cccnc12 (stereo not shown) [AD4-13069],920,0.91,
Cc1cccc(NC(c2cccc(C(F)(F)F)c2)c2ccc3cccnc3c2O)n1 (stereo not shown) [AD4-12903],,0.67,
Oc1c(C(Nc2ccc(Cl)cn2)c2cc(C(F)(F)F)ccc2Cl)ccc2cccnc12 (stereo not shown) [AD4-13052],1000,0.75,
Oc1c(C(Nc2cccnc2)c2cccs2)ccc2cccnc12 (stereo not shown) [AD4-10315],,0.79,
Cc1ccnc(NC(c2cc(Cl)cc(Cl)c2)c2ccc3cccnc3c2O)c1 (stereo not shown) [AD4-12915],1100,0.68,
Oc1c(C(Nc2ncc(Cl)cc2F)c2cccc(C(F)(F)F)c2)ccc2cccnc12 (stereo not shown) [AD4-13145],2400,0.86,
Cc1ccnc(NC(c2ccc(C(F)(F)F)cc2F)c2ccc3ccc(C)nc3c2O)c1 (stereo not shown) [AD4-13096],3000,0.61,
Cc1cc(Cl)cnc1NC(c1ccc(F)cc1Cl)c1ccc2cccnc2c1O (stereo not shown) [AD4-13139],,0.75,1400
Cc1cc(NC(c2ccc3cccnc3c2O)c2c(Cl)cccc2Cl)ncc1F (stereo not shown) [AD4-13125],1700,0.70,
Cc1cccc(NC(c2cccc(Cl)c2Cl)c2ccc3ccc(C)nc3c2O)n1 (stereo not shown) [AD4-13073],1600,0.85,
Oc1c(C(Nc2ccc(Cl)cn2)c2c(Cl)cccc2Cl)ccc2cccnc12 (stereo not shown) [AD4-13109],1500,0.88,

# From patent US9023354B2, “Combination therapy with MDM2 and EFGR inhibitors” (priority 2010, dated 2015)
